Laboratory results reported in PMC11253858, “New melphalan derivatives for the treatment of retinoblastoma in combination with thermotherapy” (RSC Medicinal Chemistry, 2024).
Where “and” joins values, the source holds several entries; their conditions need not be identical. Identical values can stand only once. Like-named read-outs stand apart in the source and are kept apart here.

Key:
[1] = system: Y79 human retinoblastoma cell line; assay: Presto blue cell viability assay in Y79 after 24 hours; type: cell-based; conditions: for IC50: Homo sapiens; for fold increase in cytotoxicity (lower IC50) compared to melphalan / cytotoxicity at the elevated temperature relative to 37 °C: Y79, 24 hours; for fold increase in cytotoxicity (lower IC50) compared to melphalan: 37 °C; for cytotoxicity at the elevated temperature relative to 37 °C: 42 °C for 1 hour vs 37 °C
Protocol: The IC50 values were determined using the presto blue cell viability assay (Table 1).
(§1) The human retina (RPE1) and retinoblastoma (Y79) cell lines were purchased from ATCC, Switzerland. RPMI 1640, DMEM high glucose Glutamax and DMEM GlutaMAX media were obtained from Life Technologies, and fetal bovine serum (FBS) was obtained from Sigma. Cell culture was performed in RPMI 1640 with 20% FBS and DMEM high glucose Glutamax with 10% FBS for Y79 and RPE1, respectively. Cell passage was performed twice per week using the appropriate medium and the resulting flaks were maintained in a bioincubator (Thermo Scientific, Switzerland) that controlled the humidity and fixed the CO2 rate to 5%. Cell viability tests were conducted in a flat bottomed 96 or 384 well plate using a compound stock solution prepared in dimethyl sulfoxide (DMSO) for all compounds except Cisplatin. The maximum concentration of DMSO in the wells was 0.1% DMSO.
2. Presto Blue cell viability assay in Y79 after 24 hours
The optimization of the starting concentration was carried out for each tested compound after 24 h of incubation. In order to conduct the tests at the mentioned time lapses, Y79’s work cell solutions were prepared at 10 6 cell/mL for the 24 h experiment. The same protocol as described below was used, however in this case, the experiment was conducted […]
3. Presto Blue cell viability assay in Y79 and RPE1 cells at 72 h […]
tests were conducted using cell work solutions at 4x10^5 and 7x10^5 cell/mL respectively and compound stock solutions were prepared at 10 µM in DMSO. The robotic System (Echo 550 […]
LIQUID HANDLER) charged the 384-cell plate with a decreasing volume of each compound’s SS in order to have a concentration gradient that covers 100 to 0.7 µM. DMSO was added to […]
added in the plate using a disperser (Thermo Scientific Multidrop Combi, Switzerland).
(§2) For thermal assays, the plates were placed in a heat chamber at 42 °C for 1 h and then transferred to a bioincubator at 37 °C for 71 h where the control plates were already placed. After 72 h of a total incubation time, […] of presto blue were added to each well and all the plates were incubated for 1 h at 37 °C. For presto blue cell viability assays, gambogic acid was used at 10 µM and represented the positive control, while DMSO at a final concentration of 0.1% presented the negative control. Fluorescence was measured using a […]
(§3) plate reader (Tecan […] F500 reader, Switzerland) at 560 nm for […] and 590 nm for fluorescence. The normalization of the fluorescence’s intensities was conducted with GraphPad software using Gambogic acid and DMSO as positive and negative control, […]

[2] = system: human retinoblastoma cells (Y79); assay: Presto Blue cell viability assay in Y79 cells at 72 h; type: cell-based
Protocol: (§4) The cytotoxicity of the two most promising derivatives, i.e.3d and 3e, was subsequently evaluated on human retinoblastoma (Y79) and healthy human retina (RPE1) immortalised cells after 72 hours of incubation in 2D settings under standard conditions, i.e. at 37 °C and 5% CO2, and also under conditions that mimic mild hyperthermia, i.e. at 42 °C for 1 hour followed by 71 hours at 37 °C, respectively, see Table 2.
as §1, with “DMSO. […]” for “DMSO.”
(§5) 3. Presto Blue cell viability assay in Y79 and RPE1 cells at 72 h
(§6) In order to evaluate the cytotoxicity of 3a-3f on Y79 and RPE1 cell lines, cell viability tests were conducted using cell work solutions at 4x10^5 and 7x10^5 cell/mL respectively and compound stock solutions were prepared at 10 µM in DMSO. The robotic System (Echo 550 […]
(§7) LIQUID HANDLER) charged the 384-cell plate with a decreasing volume of each compound’s SS in order to have a concentration gradient that covers 100 to 0.7 µM. DMSO was added to each well so as to have the same final volume of compound’s solution in each well. Cells were added in the plate using a disperser (Thermo Scientific Multidrop Combi, Switzerland).
as §2, §3

[3] = system: dsDNA oligonucleotide 5'-AGGCAG-3' (B1) / 3'-TCCGTC-5' (B2); assay: DNA binding ESI-MS study with model double stranded oligonucleotide; conditions: 37 °C, 48 hours incubation; for adduct formation with the dsDNA oligonucleotide (ESI-MS): 1 : 5 ratio
Protocol: The resulting solutions were measured by electrospray ionization mass spectrometry (ESI-MS) and the analysis of the spectra[45] is provided in the ESI ^† and summarised in Fig. 2a.
Furthermore, the relative amount of melphalan derivative-bound dsDNA follows the same trend as the toxicity of the compounds. […] The relative amount of these adducts decreases with the chain length, which could be a consequence of the higher hydrophobicity of the compounds and hint at a higher resistance to hydrolysis. […] No crosslinked DNA adducts, known to be relevant hallmarks in the melphalan mechanism of action, were detected, probably due to the difficulty to observe them upon ionization.[47]

[4] = system: healthy human retina (RPE1) immortalised cells; assay: Presto Blue cell viability assay in RPE1 cells at 72 h; type: cell-based; conditions: for cytotoxicity to healthy RPE1 cells relative to tumoral Y79 cells (selectivity): 72 hours; for IC50: Homo sapiens, RPE-1
Protocol: as §4
as §1, with “DMSO. […]” for “DMSO.”
as §5, §6, §7, §2, §3

[5] = system: myeloma RPMI 8226 cell line; set-up: method as in PMID 32161295; conditions: cited from earlier work
[6] = Y79, 1 hour at 42 °C followed by 23 hours at 37 °C, read-out: IC50 42 °C
[7] = Y79, 24 hours at 37 °C, 5% CO2, read-out: IC50 37 °C
[8] = Y79, 1 hour at 42 °C followed by 71 hours at 37 °C, read-out: Y79 IC50 42 °C
[9] = Y79, 72 hours at 37 °C, read-out: Y79 IC50 37 °C
[10] = RPE1, 1 hour at 42 °C followed by 71 hours at 37 °C, read-out: RPE1 IC50 42 °C
[11] = RPE1, 72 hours at 37 °C, read-out: RPE1 IC50 37 °C

N[C@@H](Cc1ccc(N(CCCl)CCCl)cc1)C(=O)OCCC(F)(F)F [Compound 3a]
IC50 [1, 6]: 1.1 ± 0.1 µM | IC50 [1, 7]: 1.2 ± 0.1 µM

N[C@@H](Cc1ccc(N(CCCl)CCCl)cc1)C(=O)OCCC(F)(F)C(F)(F)F [Compound 3b]
IC50 [1, 6]: 1.8 ± 0.1 µM | IC50 [1, 7]: 2.2 ± 0.1 µM

N[C@@H](Cc1ccc(N(CCCl)CCCl)cc1)C(=O)OCCC(F)(F)C(F)(F)C(F)(F)C(F)(F)F [Compound 3c]
IC50 [1, 6]: 2.1 ± 0.2 µM | IC50 [1, 7]: 3.4 ± 0.2 µM

Cl.N[C@@H](Cc1ccc(N(CCCl)CCCl)cc1)C(=O)OCCC(F)(F)C(F)(F)C(F)(F)C(F)(F)C(F)(F)C(F)(F)F [Compound 3d]
IC50 [2, 8]: 2.1 ± 0.2 µM | IC50 [2, 9]: 2.3 ± 0.1 µM | extent of ester cleavage in oligonucleotide adducts (ESI-MS) [3]: more significant | IC50 [1, 6]: 3.3 ± 0.2 µM | IC50 [1, 7]: 5.9 ± 0.3 µM | fold increase in cytotoxicity (lower IC50) compared to melphalan [1]: 5 to 10 fold and 10 fold | cytotoxicity at the elevated temperature relative to 37 °C [1]: approximately twice as cytotoxic | cytotoxicity to healthy RPE1 cells relative to tumoral Y79 cells (selectivity) [4]: more than an order of magnitude less cytotoxic | IC50 [4, 10]: 31.5 ± 2.7 µM | IC50 [4, 11]: 39.3 ± 5 µM

Cl.N[C@@H](Cc1ccc(N(CCCl)CCCl)cc1)C(=O)OCCC(F)(F)C(F)(F)C(F)(F)C(F)(F)C(F)(F)C(F)(F)C(F)(F)C(F)(F)F [Compound 3e]
IC50 [2, 8]: 4.4 ± 0.3 µM | IC50 [2, 9]: 4.5 ± 0.1 µM | extent of ester cleavage in oligonucleotide adducts (ESI-MS) [3]: more significant | IC50 [1, 6]: 6.6 ± 0.4 µM | IC50 [1, 7]: 13 ± 0.4 µM | fold increase in cytotoxicity (lower IC50) compared to melphalan [1]: 5 to 10 fold and 5 fold | cytotoxicity at the elevated temperature relative to 37 °C [1]: approximately twice as cytotoxic | cytotoxicity to healthy RPE1 cells relative to tumoral Y79 cells (selectivity) [4]: more than an order of magnitude less cytotoxic | IC50 [4, 10]: 42.3 ± 6 µM | IC50 [4, 11]: 52.8 ± 9.3 µM

Cl.N[C@@H](Cc1ccc(N(CCCl)CCCl)cc1)C(=O)OCCC(F)(F)C(F)(F)C(F)(F)C(F)(F)C(F)(F)C(F)(F)C(F)(F)C(F)(F)C(F)(F)C(F)(F)F [Compound 3f]
adduct formation with the dsDNA oligonucleotide (ESI-MS) [3]: no adducts were observed | IC50 [1, 6]: 183 ± 20 µM | IC50 [1, 7]: > 200 µM

N[C@@H](Cc1ccc(N(CCCl)CCCl)cc1)C(=O)O [Melphalan]
adduct formation with the dsDNA oligonucleotide (ESI-MS) [3]: formed adducts with both strands of the oligonucleotides | IC50 [1, 6]: 26 ± 2 µM | IC50 [1, 7]: 59 ± 5 µM

CCOC(=O)C(N)Cc1ccc(N(CCCl)CCCl)cc1 (stereo not shown) [ethyl ester derivative of melphalan]
IC50 [5]: 1200 ± 300 nM | fold increase in cytotoxicity compared to melphalan [5]: 8 fold
